# Measured values from paper PMC3865801 (Journal of Medicinal Chemistry, 2013).
# “Also recorded” adds a separate entry of the source. Read-outs that look alike come from different tables or passages of the source.
# Columns and labels:
# [1] = Plasma pharmacokinetics in male CD-1 mice; format: in vivo, mouse; settings: 5 mg/kg iv; for AUC0–∞ / Cmax / T1/2: plasma
# Procedure: Blood was collected by cardiac puncture at 5 and 30 min and 1, 2, 4, and 6 h postdose in ice-cold K2-EDTA tubes. Plasma samples were separated by centrifuging at 4000g for 8 min and stored at −80 °C until analysis. Frozen plasma was thawed on wet ice on the day of analysis. […] A Zorbax SB-C18, 50 mm × 2.1 mm 5 μm column was used at a 0.5 mL/min flow rate, and elution was with a gradient of organic phase (A), acetonitrile in water (80:20 v/v) containing 0.01% formic acid and aqueous phase (B), water containing 0.01% formic acid. LC–MS/MS analysis was carried out using multiple reaction monitoring. […] Plasma samples from 5 min, 30 min, and 1 h were diluted with control mouse plasma (1:20 for 5 min, 1:10 for 30 min and 1 h samples) to fit within this range. The resultant concentration vs time data were fitted (using Phoenix WinNonlin 6.2; Pharsight Corporation, St. Louis, MO) to calculate pharmacokinetic parameters including half-life (T1/2), maximum concentration (Cmax), area under the curve (AUC0–∞), volume of distribution (V), and clearance (Cl).
# [2] = Maximum tolerated dose (MTD) in C57BL/6 mice; settings: C57BL/6, mouse, in vivo, ip
# Procedure: The MTD was determined by single dose or b.i.d. × 3 intraperitoneal administration through a classical dose escalation design in C57BL/6 mice and defined as a dose level that was tolerated by mice (n = 2–3 mice/group) with a body weight loss of <10% and no death or detectable sickness. […] All animal experiments were approved by the Animal Ethics Committee of the University of Auckland.
# [3] = biological target: T1, recombinant purified mouse perforin (Mus musculus, UniProt P10820); assay: Inhibitor binding to immobilized perforin by SPR (Biacore T200); settings: for Kd: single site specific binding model, read-out: calculated KD; for binding to immobilized perforin by SPR: analyte ≤2.5 μM, 5% DMSO running buffer
# T1 sequence (P10820 21-554): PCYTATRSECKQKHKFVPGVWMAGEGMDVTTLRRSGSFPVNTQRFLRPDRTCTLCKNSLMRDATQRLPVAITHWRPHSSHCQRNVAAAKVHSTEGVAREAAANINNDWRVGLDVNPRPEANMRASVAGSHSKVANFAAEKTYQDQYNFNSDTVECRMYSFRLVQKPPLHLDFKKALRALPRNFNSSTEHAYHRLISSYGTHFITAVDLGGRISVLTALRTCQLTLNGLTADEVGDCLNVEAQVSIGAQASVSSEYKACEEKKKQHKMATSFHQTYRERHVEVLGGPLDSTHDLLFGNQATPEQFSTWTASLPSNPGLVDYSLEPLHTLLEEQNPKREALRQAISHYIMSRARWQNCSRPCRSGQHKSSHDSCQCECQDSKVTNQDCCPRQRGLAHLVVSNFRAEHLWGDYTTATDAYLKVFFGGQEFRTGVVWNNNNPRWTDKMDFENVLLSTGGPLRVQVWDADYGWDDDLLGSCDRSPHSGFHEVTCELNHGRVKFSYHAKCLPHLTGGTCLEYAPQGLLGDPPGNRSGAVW
# Description: While several series of potent inhibitors have now been identified,[23]−[26] little is known about the mechanism by which the cytolytic activity of perforin action is blocked. In order to find out more about the nature and degree of inhibitor binding, recombinant purified mouse perforin was immobilized on a surface plasmon resonance (SPR) S-series CM5 sensor chip using standard amide coupling methodology.
# Binding experiments with surface immobilized wild-type perforin monomers on a S-series CM5 sensor chip (GE Healthcare Life Sciences) were carried out using a Biacore T200 SPR machine (GE Healthcare Life Sciences). Perforin monomer solution (25 μg/mL in 10 mM sodium acetate, pH 5.5) was injected over the sensor chip surface under standard amide coupling conditions to obtain covalent binding of the protein (density = 4257 RU). The initial and running buffers were made from a 10× stock solution of HEPES buffered saline (HBS). 10× HBS (50 mL) was diluted to 500 mL with water and filtered through a 0.22 μm filter (initial buffer). This initial buffer (380 mL) was added to DMSO (20 mL) to prepare the 5% DMSO running buffer. Stock solutions (2.5 mM) of compound were prepared in 100% DMSO. These solutions were diluted in HEPES initial buffer to 5% DMSO (125 μM) and then subsequently diluted to the required concentrations using HEPES running buffer containing 5% DMSO to maintain a constant DMSO concentration. A solvent correction was run before and after the injections to account for differences in DMSO concentrations between buffer and analyte solutions.
# [4] = intraperitoneal, twice daily over 3 days, read-out: MTD, multiple dosing
# [5] = single intraperitoneal dose, mice, read-out: MTD, single dose
# [6] = SI Figure 2: 0, 0.25, 1.25 and 2.5 µM
# [7] = SI Figure 3: further dilution series 0–2.5 µM
SMILES,Cl (clearance) [1] [mL h^–1 kg^–1],V (volume of distribution) [1] [L/kg],AUC0–∞ [1] [ng·h/mL],Cmax [1] [ng/mL],T1/2 [1] [h],"MTD at 96 h [2, 4] [mg/kg]","MTD at 96 h [2, 5] [mg/kg]","calculated Rmax [3, 6] [RU]","Kd [3, 6] [µM]","calculated Rmax [3, 7] [RU]","Kd [3, 7] [µM]",binding to immobilized perforin by SPR [3]
"CC1c2cc(-c3ccc(/C=C4/NC(=S)NC4=O)s3)ccc2C(=O)N1C (centres unmarked) [compound 135, (E,Z)-2,3-Dimethyl-5-(5-((5-oxo-2-thioxoimidazolidin-4-ylidene)methyl)thiophen-2-yl)isoindolin-1-one]",4346,1.478,1151,4488,1.15,60,80,1.23 ± 0.10,1.79 ± 0.55,8.66 ± 2.81,2.39 ± 1.23,saturable binding; also recorded: bind reversibly
O=C1NC(=S)N/C1=C/c1ccc(-c2ccc3c(c2)CCNC3=O)s1 [compound 167],5237,2.75,955,4513,1.30,40,60,–,–,–,–,linear concentration response; also recorded: bind reversibly
